Structures can show the parent of a compound that is named as a salt.
How the values were obtained:
[1] = Clinical trial of oral and intravenous-then-oral delafloxacin regimens: adverse event reporting, incidence of diarrhea; format: in vivo, human; conditions: for Abdominal Pain, subjects reporting, number (%) / Diarrhea, subjects reporting, number (%) / Gastrointestinal disorders, subjects reporting, number (%) / Nausea, subjects reporting, number (%): n = 20, safety population; for Percentage of subjects who reported diarrhea: oral capsules
[2] = Phase 1 single-dose crossover study: treatment-emergent adverse events; format: in vivo, human
Method: The pharmacokinetics and relative bioavailabilities of a 300 mg delafloxacin intravenous dosage form according to Example 1 and a 450 mg dose of oral delafloxacin according to Example 4 were measured in a Phase 1, single-dose, open-label, randomized, 2-period, 2-sequence crossover study. 56 healthy subjects received a single 450-mg dose of oral delafloxacin and a single 300-mg delafloxacin IV infusion in 1 of 2 treatment sequences. Plasma samples were analyzed for delafloxacin concentrations with a validated LC-MS/MS method. Pharmacokinetic parameters were calculated using noncompartmental methods.
16 treatment-emergent AEs (TEAE) were reported, the most frequent of which were headache (5.4%), followed by diarrhea (3.6%). 2 TEAEs were considered moderate in severity, but the remainders were considered mild, and none led to study discontinuation.

[3] = Regimen C: 300 mg IV then 400 mg oral capsules
[4] = Regimens A/B: 400-mg oral capsules (4 × 100-mg)
[5] = 56 healthy subjects, single 450-mg oral dose and single 300-mg IV infusion

SMILES | Abdominal Pain, subjects reporting, number (%) [1, 3] | Diarrhea, subjects reporting, number (%) [1, 3] | Gastrointestinal disorders, subjects reporting, number (%) [1, 3] | Nausea, subjects reporting, number (%) [1, 3] | Abdominal Pain, subjects reporting, number (%) [1, 4] | Diarrhea, subjects reporting, number (%) [1, 4] | Gastrointestinal disorders, subjects reporting, number (%) [1, 4] | Nausea, subjects reporting, number (%) [1, 4] | Side effects reported ([1]; group with intravenous administration followed by oral treatment) | Tolerability ([1]; intravenous formulation (300 mg, 3 days) followed by oral formulation (400 mg BID, 4 days)) | Side effects as compared to all-oral formulations ([1]; intravenous formulation followed by oral formulation) | Percentage of subjects who reported diarrhea [1] [%] | Diarrhea TEAE frequency [2, 5] [%] | Headache TEAE frequency [2, 5] [%] | Number of treatment-emergent AEs (TEAE) reported [2, 5] | TEAEs that led to study discontinuation ([2]; in vivo) | Number of TEAEs considered moderate in severity ([2]; remainders considered mild)
CNC[C@H](O)[C@@H](O)[C@H](O)[C@H](O)CO.Nc1nc(-n2cc(C(=O)O)c(=O)c3cc(F)c(N4CC(O)C4)c(Cl)c32)c(F)cc1F [Meglumine Salt, D-glucitol, 1-deoxy-1-(methylamino)-, 1-(6-amino-3,5-difluoro-2-pyridinyl)-8-chloro-6-fluoro-1,4-dihydro-7-(3-hydroxy-1-azetidinyl)-4-oxo-3-quinolinecarboxylate] | 0 | 0 | 0 | 0 | 0 | 3 (15.0%) | 5 (25.0%) | 0 | No side effect | well tolerated | reduced side effects | 15.0 |  |  |  |  | 
Nc1nc(-n2cc(C(=O)O)c(=O)c3cc(F)c(N4CC(O)C4)c(Cl)c32)c(F)cc1F [Potassium Salt] |  |  |  |  | 2 (10.0%) | 3 (15.0%) | 3 (15.0%) | 1 (5.0%) |  |  |  | 15.0 |  |  |  |  | 
Nc1nc(-n2cc(C(=O)O)c(=O)c3cc(F)c(N4CC(O)C4)c(Cl)c32)c(F)cc1F [delafloxacin, 1-(6-amino-3,5-difluoro-2-pyridinyl)-8-chloro-6-fluoro-1,4-dihydro-7-(3-hydroxy-1-azetidinyl)-4-oxo-3-quinolinecarboxylic acid] |  |  |  |  |  |  |  |  |  |  |  |  | 3.6 | 5.4 | 16 | none | 2

Source: US20170368055A1, “METHODS FOR TREATING INFECTIONS” (Melinta Therapeutics, Inc., priority 2014, published 2017)
